Results on 4 compounds are retold here after publication PMC4556473 (British Journal of Pharmacology, 2015).

The target of assay [1] is T1, WT mSlo3 (KCa5.1) channels (Mus musculus, UniProt O54982).
T1 construct: Full-length WT, R196Q and F304Y mSlo3 K^+ channel subunits were expressed in Xenopus oocytes; expressed in transfected cells; host or cells: Xenopus laevis oocytes injected with in vitro transcribed capped mRNA (pBF vector)
T1 sequence (O54982 1-1121): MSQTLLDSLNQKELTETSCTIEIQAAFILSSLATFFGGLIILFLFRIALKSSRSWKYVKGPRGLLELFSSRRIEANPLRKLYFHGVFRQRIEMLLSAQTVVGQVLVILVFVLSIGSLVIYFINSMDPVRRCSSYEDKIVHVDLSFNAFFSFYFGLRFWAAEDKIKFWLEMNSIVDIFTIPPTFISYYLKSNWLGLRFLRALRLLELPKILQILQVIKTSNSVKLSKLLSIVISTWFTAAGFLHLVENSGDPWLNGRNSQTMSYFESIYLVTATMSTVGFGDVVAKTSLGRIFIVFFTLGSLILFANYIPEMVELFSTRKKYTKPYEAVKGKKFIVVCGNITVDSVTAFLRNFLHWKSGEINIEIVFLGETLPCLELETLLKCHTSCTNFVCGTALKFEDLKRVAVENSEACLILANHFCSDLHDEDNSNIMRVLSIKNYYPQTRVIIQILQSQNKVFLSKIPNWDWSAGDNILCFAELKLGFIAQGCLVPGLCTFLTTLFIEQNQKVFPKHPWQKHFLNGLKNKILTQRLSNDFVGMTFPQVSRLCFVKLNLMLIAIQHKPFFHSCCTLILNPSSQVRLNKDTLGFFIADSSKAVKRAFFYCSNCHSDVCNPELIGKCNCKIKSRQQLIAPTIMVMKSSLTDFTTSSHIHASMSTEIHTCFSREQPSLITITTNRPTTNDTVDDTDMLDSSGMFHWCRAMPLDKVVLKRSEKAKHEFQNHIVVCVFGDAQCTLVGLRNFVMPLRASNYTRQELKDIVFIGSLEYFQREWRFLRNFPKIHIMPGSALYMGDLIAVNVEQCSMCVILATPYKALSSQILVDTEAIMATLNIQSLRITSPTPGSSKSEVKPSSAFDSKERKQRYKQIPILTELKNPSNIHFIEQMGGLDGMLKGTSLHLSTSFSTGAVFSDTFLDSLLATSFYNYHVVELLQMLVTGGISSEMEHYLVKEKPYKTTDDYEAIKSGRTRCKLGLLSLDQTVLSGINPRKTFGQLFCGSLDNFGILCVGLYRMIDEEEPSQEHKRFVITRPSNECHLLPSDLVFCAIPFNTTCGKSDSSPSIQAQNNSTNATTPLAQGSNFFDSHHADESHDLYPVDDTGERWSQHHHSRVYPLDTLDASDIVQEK
The experiment in a line: Two-electrode voltage clamp of WT mSlo3 currents in Xenopus oocytes. The class given is cell-based. The conditions noted are these: for inhibition of WT mSlo3 current: pulses to +100 mV. Here is the method: A plasmid containing the full-length mSlo3 sequence was a gift from Dr L. Salkoff (Washington University School of Medicine) and the open-reading frame was subcloned into pBF (Baukrowitz et al., [1999]), a vector optimized for in vitro mRNA synthesis and Xenopus oocyte expression. […] The […] and […] mutations were introduced by Quikchange site-directed mutagenesis (Agilent Technologies, Stockport, UK) and confirmed by automated sequencing. In vitro transcription was carried out using the mMessage mMachine SP6 kit (Ambion, Huntingdon, UK) to produce capped mRNA. Individual oocytes were obtained from humanely killed female Xenopus laevis toads (housed either at the University of Leeds, UK or from the European Xenopus Resource Centre, University of Portsmouth, UK) and were injected with 10-50 ng RNA in a 40 nL volume. […] The volume of the bath was 0.5 mL, which was perfused at a rate of approximately 1 mL·min^-1. 100 mM K^+ solution was made by an equimolar replacement of NaCl with KCl. Data were analysed with […], OriginPro 7.5 (Originlab, Northampton, MA, USA), and GraphPad Prism 6 software (GraphPad Software, San Diego, CA, USA). […] Data are presented as the mean ± SEM of n individual oocytes and statistical significance tested using Student's t-test, ANOVA (with Bonferroni post hoc comparison of means), or by Kruskal-Wallis test (with Dunn's post hoc comparison) as indicated in the Results.
(In general: Two-electrode voltage clamp is typically applied to oocytes expressing channels or transporters.)

In assay [2] the target is F304Y mSlo3 (Mus musculus, UniProt O54982, F304Y). Put plainly: Two-electrode voltage clamp of F304Y mSlo3 currents in Xenopus oocytes. The conditions noted are these: +100 mV. The class given is cell-based. How it is done: A plasmid containing the full-length mSlo3 sequence was a gift from Dr L. Salkoff (Washington University School of Medicine) and the open-reading frame was subcloned into pBF (Baukrowitz et al., [1999]), a vector optimized for in vitro mRNA synthesis and Xenopus oocyte expression. […] The […] and […] mutations were introduced by Quikchange site-directed mutagenesis (Agilent Technologies, Stockport, UK) and confirmed by automated sequencing. In vitro transcription was carried out using the mMessage mMachine SP6 kit (Ambion, Huntingdon, UK) to produce capped mRNA. Individual oocytes were obtained from humanely killed female Xenopus laevis toads (housed either at the University of Leeds, UK or from the European Xenopus Resource Centre, University of Portsmouth, UK) and were injected with 10-50 ng RNA in a 40 nL volume. […] The volume of the bath was 0.5 mL, which was perfused at a rate of approximately 1 mL·min^-1. 100 mM K^+ solution was made by an equimolar replacement of NaCl with KCl. Data were analysed with […], OriginPro 7.5 (Originlab, Northampton, MA, USA), and GraphPad Prism 6 software (GraphPad Software, San Diego, CA, USA). […]
Sequence of F304Y mSlo3 (O54982 whole entry F304Y): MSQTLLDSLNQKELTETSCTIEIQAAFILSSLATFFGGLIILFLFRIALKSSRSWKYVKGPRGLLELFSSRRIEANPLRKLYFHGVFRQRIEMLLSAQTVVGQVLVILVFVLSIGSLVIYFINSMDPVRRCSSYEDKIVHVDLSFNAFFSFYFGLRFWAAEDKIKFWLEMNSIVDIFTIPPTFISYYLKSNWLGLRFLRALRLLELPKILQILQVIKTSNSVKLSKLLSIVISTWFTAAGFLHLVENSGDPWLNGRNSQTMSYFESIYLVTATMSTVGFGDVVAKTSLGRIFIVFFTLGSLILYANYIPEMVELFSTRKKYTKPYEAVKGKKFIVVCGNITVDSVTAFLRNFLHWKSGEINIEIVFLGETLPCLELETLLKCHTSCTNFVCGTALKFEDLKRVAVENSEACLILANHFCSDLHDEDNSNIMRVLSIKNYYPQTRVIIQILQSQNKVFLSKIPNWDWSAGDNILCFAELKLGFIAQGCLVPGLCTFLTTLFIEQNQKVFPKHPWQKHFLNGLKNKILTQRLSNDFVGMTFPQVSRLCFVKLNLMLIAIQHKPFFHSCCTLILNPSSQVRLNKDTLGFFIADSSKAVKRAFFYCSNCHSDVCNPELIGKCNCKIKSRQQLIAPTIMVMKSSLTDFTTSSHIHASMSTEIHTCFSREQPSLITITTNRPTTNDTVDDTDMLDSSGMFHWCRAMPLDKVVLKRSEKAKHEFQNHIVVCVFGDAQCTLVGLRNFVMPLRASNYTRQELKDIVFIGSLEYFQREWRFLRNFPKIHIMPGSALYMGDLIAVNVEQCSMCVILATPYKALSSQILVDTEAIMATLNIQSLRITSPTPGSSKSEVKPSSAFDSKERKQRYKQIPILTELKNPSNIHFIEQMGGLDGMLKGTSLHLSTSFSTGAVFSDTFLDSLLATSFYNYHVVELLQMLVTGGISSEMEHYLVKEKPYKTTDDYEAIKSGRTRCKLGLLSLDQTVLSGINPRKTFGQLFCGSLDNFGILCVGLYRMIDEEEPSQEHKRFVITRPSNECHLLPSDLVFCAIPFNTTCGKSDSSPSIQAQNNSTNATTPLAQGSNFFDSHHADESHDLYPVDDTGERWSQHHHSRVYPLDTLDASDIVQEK

As to `COCC(=O)O[C@]1(CCN(C)CCCc2nc3ccccc3[nH]2)CCc2cc(F)ccc2[C@@H]1C(C)C` [mibefridil, mibefradil], the “inhibition of WT mSlo3 current” value in assay [1] (5 μM) is “weakly inhibited”.

With `CCCCCCC[N+](CC)(CC)CCCCc1ccc(Cl)cc1` [clofilium], in assay [1] (50 μM), the “inhibition of WT mSlo3 current” value was “more strongly inhibited”.

On to `CC[N+](CC)(CC)CC.[Cl-]` [TEA^+, tetraethlyammonium chloride], for which the “inhibition of WT mSlo3 current” value in assay [1] (20 mM) was “weakly inhibited”.

As for `[Ba+2].[Cl-].[Cl-]` [Ba^2+, barium chloride], the “inhibition of WT mSlo3 current” value in assay [1] (2 mM, 2.5 mM extracellular K+) is on record as “strongly inhibited”. Also, the “inhibition of WT mSlo3 current in high extracellular K+” value in assay [1] (2 mM, extracellular K+ raised to 100 mM) is “prevented”. Further, the “Hill slope of inhibition of WT mSlo3 currents” value in assay [1] (+100 mV) came to 0.88 ± 0.11. Further, the IC50 (in general, the point on the concentration scale where inhibition reaches its midpoint) is 646 ± 100 µM in assay [1] (currents evoked by voltage pulses to +100 mV, Xenopus oocytes, 2.5 mM K+ Ringer's pH 8, read-out: IC50 of inhibition of WT mSlo3 currents) and 525 ± 97 µM in assay [2] (Xenopus oocytes, read-out: IC50 of inhibition of F304Y mSlo3 currents). Besides, in assay [2], the “Hill slope of inhibition of F304Y mSlo3 currents” value came to 1.05 ± 0.12.
